Experimental data: patent publication US20130171278A1 (priority 2010, published 2013)

What was measured:
[1] = system: scopolamine-induced memory deficit rat model; assay: Passive avoidance test in scopolamine-induced memory deficit model; assay type: in vivo; details: 24 hrs after shock
Procedure: (§1) Ethology test such as passive avoidance test and radial maze test were performed for Artemisia apiaceae. In the case of passive avoidance test, the control group, the scopolamine-treated group (3 mg/kg, i.p.), the tacrine-treated group after scopolamine treatment (10 mg/kg p.o.) and the Artemisia apiaceae extract-treated group were shocked. After 24 hrs, entering time to dark chamber (step-through latency, STL) was measured. […] Furthermore, in order to verify enhancement in more specific learning ability, acquisition test in which an error frequency is measured was performed using 8-arm radial maze.

scopolamine-treated rat = assay: 8-arm radial maze acquisition test in scopolamine-treated animals; assay type: in vivo
Procedure: as §1

For `CN1[C@@H]2C[C@@H](OC(=O)[C@H](CO)c3ccccc3)C[C@H]1[C@@H]1O[C@@H]12` [scopolamine], the “entering time into the dark chamber (step-through latency, STL)” value ([1]; scopolamine 3 mg/kg i.p., compared with the control group) was “significantly decreased entering time into the dark chamber”.

With `Nc1c2c(nc3ccccc13)CCCC2` [tacrine] the “entering time into the dark chamber (step-through latency, STL)” value ([1]; tacrine 10 mg/kg p.o. after scopolamine treatment) was “significantly increased entering time into the dark chamber”, the “error frequency compared with the scopolamine-treated group” value (scopolamine-treated rat) was “significantly decreased error frequency” and the error frequency (scopolamine-treated rat; normal group 1.6, negative control group 3.25) was 1.75.
